Source: patent publication US4272524A, “N-Acyl-muramyl peptide derivatives having anti-infectious infections properties” (priority 1976, dated 1981)

System: Klebsiella pneumoniae
Test: Response of mice to an intramuscular infection by 10^4 Klebsiella pneumoniae (Table 2)
Assay type: in vivo
[1] = i.v. hour + 1 after inoculation, 100 μg per animal
[2] = per os day-1, 2,000 μg per animal

Compound	Survival (%) D + 3 (i.v. day-1, 100 μg per animal) [%]	Survival (%) D + 5 (i.v. day-1, 100 μg per animal) [%]	Survival (%) D + 8 (i.v. day-1, 100 μg per animal) [%]	Survival (%) D + 3 [1] [%]	Survival (%) D + 5 [1] [%]	Survival (%) D + 8 [1] [%]	Survival (%) D + 3 [2] [%]	Survival (%) D + 5 [2] [%]	Survival (%) D + 8 [2] [%]	Survival (%) D + 3 (s.c. day-1, 100 μg per animal) [%]	Survival (%) D + 5 (s.c. day-1, 100 μg per animal) [%]	Survival (%) D + 8 (s.c. day-1, 100 μg per animal) [%]
CC(=O)N[C@H]1C(O)O[C@H](CO)[C@@H](O)[C@@H]1O[C@H](C)C(=O)N[C@@H](C)C(=O)N[C@H](CCC(N)=O)C(=O)O (stereo partly drawn) [Ac--Mur--L-Ala--D-Glu--γ(NH2)]	92	79	67	–	–	–	–	–	–	–	–	–
Ac--Mur--L-Ala--D-Glu-- γ(L-Ala)--NH2 [Ac--Mur--L-Ala--D-Glu--(L-Ala)--NH2]	100	94	63	–	–	–	–	–	–	–	–	–
Ac--Mur--L-Ala--D-Glu-- γ(L-Lys)--NH2 [Ac--Mur--L-Ala--D-Glu--(L-Lys)--NH2]	100	93	73	91	78	66	81	81	56	100	81	75
Ac--Mur--L-Ala--D-Glu-- γ(L-Lys--L-Ala)--NH2 [Ac--Mur--L-Ala--D-Glu--(L-Lys--L-Ala)]	96	79	71	–	–	–	–	–	–	–	–	–
